Assay results as given in publication PMC10965793, “Synthesis and biological evaluation of pyridylpiperazine hybrid derivatives as urease inhibitors” (Frontiers in Chemistry, 2024).
Entries after “also recorded” stand apart in the source; their conditions may differ. Where two headings read alike, the source gives them in different places.

Assays:
urease = settings: 2022, cited from earlier work
jack bean urease = jack bean urease (Canavalia ensiformis, UniProt P07374); experiment: biochemical
Procedure: The inhibitory activity of 1-(3-nitropyridin-2-yl)piperazine derivatives (5a-o; 7a-k) was assessed in vitro against urease with minor modifications using the indophenol method ([Al Azzam et al., 2022]; [Da Costa et al., 2022]). At first, 1 mM solution of a test compound was prepared in 10% DMSO followed by the preparation of the reaction mixture. The reaction mixture was prepared by adding 30 μL of reaction buffer (100 mmol/L of urea, 1 mmol/L of EDTA, 10 mmol/L of LiCl2, 10 mmol/L of KH2PO4; pH: 8.2), 50 μL of R1 (120 mmol/L phosphate buffer, 60 mmol/L sodium salicylate, 5 mmol/L sodium nitroprusside, 1 mmol/L EDTA and 5 KU/L urease), 10 μL of substrate (1 mM urea), and 10 μL of test compound in triplicate in a 96-well plate. After 5 min of incubation at ambient temperature, 70 μL of R2 (120 mmol/L phosphate buffer, 400 mmol/L sodium hydroxide, and 10 mmol/L sodium hypochlorite) was added to the reaction mixture ([Rauf et al., 2013]). After another incubation period of 10 min at room temperature, the absorbance was measured using a microplate reader (Bio-Tek, United States) at a particular wavelength of 630 nm. […] The following equation was used to determine the percentage of inhibition for each test compound. Percentage inhibition=100–Absorbance of test compound/ Absorbance of negative control×100
The IC50 values of test compounds (5a-o; 7a-k) at various concentrations were determined by analyzing the data, obtained from in vitro urease inhibitory assay, by GraphPad Prism version 8.0.2 (GraphPad, California, United States).

human blood cells = experiment: In vitro hemocompatibility screening (hemolysis); assay type: cell-based; settings: hemolysis percentage at 0.5 mg/mL and 1 mg/mL nearer to that of PBS
Procedure: 1-(3-nitropyridin-2-yl)piperazine 3 and its derivatives (5b, 5c, 5i; 7e, 7h) were analyzed for hemolysis activity due to their remarkable urease inhibition potential. […] Experimental data on hemolysis percentage have been depicted in Figure 5.
Hemolysis is the rupturing of the cell membrane of red blood cells that causes the expulsion of hemoglobin into the blood plasma. To analyze the effects of 1-(3-nitropyridin-2-yl)piperazine 3 and its derivatives (5b, 5c, 5i; 7e, 7h) on human blood, a hemolysis analysis was carried out (Supplementary Figure S69). About 5 mL fresh sample of human blood was collected from a volunteer and transferred to a vacutainer tube containing EDTA to prevent coagulation. The ultracentrifugation of the blood sample was carried out at 3,000 rpm for 20 min and the separated plasma was discarded. The blood cells were washed about three times by using a double volume of phosphate buffer solution (PBS) (pH = 7.4). […] To quantify hemoglobin in test samples, the absorbance of the supernatant was measured at 540 nm ([Munawwar et al., 2023]). From the absorbance value, the hemolysis percentage was determined by the following formula: Hemolysis %=Absorbance of test sample−Absorbance of negative control/[…]

Chain of jack bean urease (P07374 whole entry, looked up): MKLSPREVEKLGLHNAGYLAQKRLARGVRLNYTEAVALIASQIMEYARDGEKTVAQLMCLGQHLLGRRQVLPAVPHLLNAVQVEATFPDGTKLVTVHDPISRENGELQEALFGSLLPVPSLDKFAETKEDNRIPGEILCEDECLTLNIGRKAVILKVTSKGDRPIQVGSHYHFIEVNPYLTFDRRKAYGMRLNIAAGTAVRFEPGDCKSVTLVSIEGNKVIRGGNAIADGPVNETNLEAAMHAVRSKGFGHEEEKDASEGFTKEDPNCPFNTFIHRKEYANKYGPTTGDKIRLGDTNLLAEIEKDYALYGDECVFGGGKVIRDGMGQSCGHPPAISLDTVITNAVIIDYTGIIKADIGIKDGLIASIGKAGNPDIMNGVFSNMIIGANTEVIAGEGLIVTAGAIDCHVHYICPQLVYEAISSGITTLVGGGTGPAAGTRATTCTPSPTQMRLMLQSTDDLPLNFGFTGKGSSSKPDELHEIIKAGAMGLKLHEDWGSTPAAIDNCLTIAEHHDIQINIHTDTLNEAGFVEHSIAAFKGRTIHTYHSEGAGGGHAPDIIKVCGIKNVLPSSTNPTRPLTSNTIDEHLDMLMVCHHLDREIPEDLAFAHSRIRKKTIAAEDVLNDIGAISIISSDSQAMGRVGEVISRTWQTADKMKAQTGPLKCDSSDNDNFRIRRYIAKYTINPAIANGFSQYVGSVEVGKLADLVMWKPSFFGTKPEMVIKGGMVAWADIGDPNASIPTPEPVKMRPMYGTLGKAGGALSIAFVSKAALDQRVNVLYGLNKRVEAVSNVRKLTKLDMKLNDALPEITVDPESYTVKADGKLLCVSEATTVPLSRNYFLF

Q: For `COc1ccccc1N1CCN(c2ccc(/C=N/NC(N)=O)cc2)CC1` [Piperazine based semicarbazone], which IC50 (urease; in Figure 3, ref Moghadam et al.) is on record?
A: Its IC50 is 3.95 µM.

Q: For `CC(C(=O)Nc1cccc([N+](=O)[O-])c1)N1CCN(c2ncccc2[N+](=O)[O-])CC1` (stereo not shown) [7f, N-(3-Nitrophenyl)-2-(4-(3-nitropyridin-2-yl)piperazin-1-yl)propanamide], which IC50 (jack bean urease) is on record?
A: The IC50 was 7.66 ± 0.37 µM.

Q: And the melting point?
A: The melting point was 120 to 121 °C.

Q: For `CC(C(=O)Nc1ccccc1[N+](=O)[O-])N1CCN(c2ncccc2[N+](=O)[O-])CC1` (stereo not shown) [7e, N-(2-Nitrophenyl)-2-(4-(3-nitropyridin-2-yl)piperazin-1-yl)propanamide], which “biocompatibility in human blood cells (hemolysis percentage)” value (human blood cells) is on record?
A: Its value is “more biocompatible; also recorded: good biocompatibility”.

Q: What about the IC50 (jack bean urease) of the same molecule?
A: Its IC50 is 2.24 ± 1.63 µM.

Q: What does the source list for `O=C(CN1CCN(c2ncccc2[N+](=O)[O-])CC1)Nc1ccc(Br)cc1` [5g, N-(4-Bromophenyl)-2-(4-(3-nitropyridin-2-yl)piperazin-1-yl)acetamide]?
A: IC50 (jack bean urease): 8.43 ± 0.41 µM; melting point: 115 to 116 °C

Q: What does the source list for `O=C(CN1CCN(c2ncccc2[N+](=O)[O-])CC1)Nc1ccc([N+](=O)[O-])cc1` [5j, N-(4-Nitrophenyl)-2-(4-(3-nitropyridin-2-yl)piperazin-1-yl)acetamide]?
A: IC50 (jack bean urease): 4.19 ± 0.41 µM; melting point: 145 to 146 °C

Q: Which results are given for `CC(C(=O)Nc1ccccc1Br)N1CCN(c2ncccc2[N+](=O)[O-])CC1` (stereo not shown) [7d, N-(2-Bromophenyl)-2-(4-(3-nitropyridin-2-yl)piperazin-1-yl)propanamide]?
A: IC50 (jack bean urease): 6.74 ± 0.49 µM; melting point: 91 to 94 °C

Q: Which IC50 (jack bean urease) does the source give for `COc1ccccc1NC(=O)C(C)N1CCN(c2ncccc2[N+](=O)[O-])CC1` (stereo not shown) [7j, N-(2-Methoxyphenyl)-2-(4-(3-nitropyridin-2-yl)piperazin-1-yl)propanamide] here?
A: Its IC50 is 5.32 ± 0.41 µM.

Q: What about the melting point of the same molecule?
A: The melting point was 108 to 110 °C.

Q: For `CC(C(=O)Nc1ccc([N+](=O)[O-])cc1)N1CCN(c2ncccc2[N+](=O)[O-])CC1` (stereo not shown) [7g, N-(4-Nitrophenyl)-2-(4-(3-nitropyridin-2-yl)piperazin-1-yl)propanamide], which IC50 (jack bean urease) is on record?
A: The IC50 was 6.13 ± 0.4 µM.

Q: What about the melting point of the same molecule?
A: Its melting point is 159 to 161 °C.

Q: For `Cc1ccc(NC(=O)CN2CCN(c3ncccc3[N+](=O)[O-])CC2)cc1` [5m, 2-(4-(3-Nitropyridin-2-yl)piperazin-1-yl)-N-(para-tolyl)acetamide], which IC50 (jack bean urease) is on record?
A: The IC50 was 9.37 ± 0.4 µM.

Q: And the melting point?
A: Its melting point is 112 to 113 °C.

Q: Which IC50 (jack bean urease) does the source give for `O=[N+]([O-])c1cccnc1N1CCNCC1` [compound 3, 1-(3-Nitropyridin-2-yl)piperazine] here?
A: Its IC50 is 3.9 ± 1.91 µM.

Q: For `O=C(CN1CCN(c2ncccc2[N+](=O)[O-])CC1)Nc1ccc(Cl)cc1` [5d, N-(4-Chlorophenyl)-2-(4-(3-nitropyridin-2-yl)piperazin-1-yl)acetamide], which IC50 (jack bean urease) is on record?
A: Its IC50 is 8.25 ± 0.41 µM.

Q: What about the melting point of the same molecule?
A: The melting point was 99 to 100 °C.

Q: Which results are given for `O=C(CN1CCN(c2ncccc2[N+](=O)[O-])CC1)Nc1ccccc1[N+](=O)[O-]` [5h, N-(2-Nitrophenyl)-2-(4-(3-nitropyridin-2-yl)piperazin-1-yl)acetamide]?
A: IC50 (jack bean urease): 7.12 ± 0.39 µM; melting point: 113 to 115 °C

Q: Which “biocompatibility in human blood cells (hemolysis percentage)” value (human blood cells) does the source give for `Cc1ccccc1NC(=O)C(C)N1CCN(c2ncccc2[N+](=O)[O-])CC1` (stereo not shown) [7h, N-(ortho-Tolyl)-2-(4-(3-nitropyridin-2-yl)piperazin-1-yl)propanamide] here?
A: The value was “more biocompatible; also recorded: good biocompatibility”.

Q: And the IC50 (jack bean urease)?
A: The IC50 was 3.01 ± 0.45 µM.

Q: And the melting point?
A: Its melting point is 90 to 92 °C.

Q: What does the source list for `O=C(CN1CCN(c2ncccc2[N+](=O)[O-])CC1)Nc1ccccc1` [5a, 2-(4-(3-Nitropyridin-2-yl)piperazin-1-yl)-N-phenylacetamide]?
A: IC50 (jack bean urease): 3.58 ± 0.84 µM; melting point: 79 to 80 °C

Q: With `COc1ccccc1NC(=O)CN1CCN(c2ncccc2[N+](=O)[O-])CC1` [5n, N-(2-Methoxyphenyl)-2-(4-(3-nitropyridin-2-yl)piperazin-1-yl)acetamide] as the molecule, how does the IC50 (jack bean urease) read?
A: The IC50 was 5.33 ± 0.44 µM.

Q: And the melting point?
A: The melting point was 120 to 121 °C.

Q: With `CC(C(=O)Nc1ccc(Cl)cc1)N1CCN(c2ncccc2[N+](=O)[O-])CC1` (stereo not shown) [7c, N-(4-Chlorophenyl)-2-(4-(3-nitropyridin-2-yl)piperazin-1-yl)propanamide] as the molecule, how does the IC50 (jack bean urease) read?
A: The IC50 was 7.38 ± 0.37 µM.

Q: And the melting point?
A: Its melting point is 57 to 59 °C.

Q: For `O=C(CN1CCN(c2ncccc2[N+](=O)[O-])CC1)Nc1ccccc1Br` [5e, N-(2-Bromophenyl)-2-(4-(3-nitropyridin-2-yl)piperazin-1-yl)acetamide], which IC50 (jack bean urease) is on record?
A: Its IC50 is 4.47 ± 0.44 µM.

Q: What about the melting point of the same molecule?
A: Its melting point is 109 to 110 °C.

Q: What does the source list for `Cc1cccc(NC(=O)CN2CCN(c3ncccc3[N+](=O)[O-])CC2)c1` [5l, 2-(4-(3-Nitropyridin-2-yl)piperazin-1-yl)-N-(meta-tolyl)acetamide]?
A: IC50 (jack bean urease): 7.14 ± 0.46 µM; melting point: 95 to 96 °C

Q: Which IC50 (jack bean urease) does the source give for `CC(C(=O)Nc1ccccc1)N1CCN(c2ncccc2[N+](=O)[O-])CC1` (stereo not shown) [7a, 2-(4-(3-Nitropyridin-2-yl)piperazin-1-yl)-N-phenylpropanamide] here?
A: Its IC50 is 7.41 ± 0.44 µM.

Q: And the melting point?
A: Its melting point is 92 to 94 °C.

Q: What does the source list for `CC(C(=O)Nc1cccc(Cl)c1)N1CCN(c2ncccc2[N+](=O)[O-])CC1` (stereo not shown) [7b, N-(3-Chlorophenyl)-2-(4-(3-nitropyridin-2-yl)piperazin-1-yl)propanamide]?
A: IC50 (jack bean urease): 6.7 ± 0.37 µM; melting point: 107 to 109 °C

Q: With `COc1ccc(NC(=O)C(C)N2CCN(c3ncccc3[N+](=O)[O-])CC2)cc1` (stereo not shown) [7k, N-(4-Methoxyphenyl)-2-(4-(3-nitropyridin-2-yl)piperazin-1-yl)propanamide] as the molecule, how does the IC50 (jack bean urease) read?
A: The IC50 was 5.95 ± 0.43 µM.

Q: What about the melting point of the same molecule?
A: Its melting point is 62 to 64 °C.

Q: Which results are given for `COc1ccc(NC(=O)CN2CCN(c3ncccc3[N+](=O)[O-])CC2)cc1` [5o, N-(4-Methoxyphenyl)-2-(4-(3-nitropyridin-2-yl)piperazin-1-yl)acetamide]?
A: IC50 (jack bean urease): 5.21 ± 0.47 µM; melting point: 107 to 108 °C

Q: Which IC50 (urease; in Figure 3, ref Naseer et al.) does the source give for `NC(=S)N/N=C/c1ccc(Cl)cn1` [Pyridine carbothioamide] here?
A: The IC50 was 1.07 µM.

Q: With `O=C(CN1CCN(c2ncccc2[N+](=O)[O-])CC1)Nc1cccc([N+](=O)[O-])c1` [5i, N-(3-Nitrophenyl)-2-(4-(3-nitropyridin-2-yl)piperazin-1-yl)acetamide] as the molecule, how does the IC50 (jack bean urease) read?
A: Its IC50 is 2.56 ± 0.55 µM.

Q: What about the melting point of the same molecule?
A: The melting point was 139 to 141 °C.

Q: Which IC50 (jack bean urease) does the source give for `O=C(CN1CCN(c2ncccc2[N+](=O)[O-])CC1)Nc1cccc(Br)c1` [5f, N-(3-Bromophenyl)-2-(4-(3-nitropyridin-2-yl)piperazin-1-yl)acetamide] here?
A: The IC50 was 5.24 ± 0.45 µM.

Q: And the melting point?
A: The melting point was 101 to 102 °C.

Q: For `Cc1ccc(NC(=O)C(C)N2CCN(c3ncccc3[N+](=O)[O-])CC2)cc1` (stereo not shown) [7i, N-(para-Tolyl)-2-(4-(3-nitropyridin-2-yl)piperazin-1-yl)propanamide], which IC50 (jack bean urease) is on record?
A: The IC50 was 5.65 ± 0.4 µM.

Q: What about the melting point of the same molecule?
A: The melting point was 88 to 89 °C.

Q: For `O=C(CN1CCN(c2ncccc2[N+](=O)[O-])CC1)Nc1cccc(Cl)c1` [5c, N-(3-Chlorophenyl)-2-(4-(3-nitropyridin-2-yl)piperazin-1-yl)acetamide], which IC50 (jack bean urease) is on record?
A: The IC50 was 2.13 ± 0.82 µM.

Q: What about the melting point of the same molecule?
A: Its melting point is 71 to 73 °C.

Q: Which IC50 (jack bean urease) does the source give for `O=C(CN1CCN(c2ncccc2[N+](=O)[O-])CC1)Nc1ccccc1Cl` [5b, N-(2-Chlorophenyl)-2-(4-(3-nitropyridin-2-yl)piperazin-1-yl)acetamide] here?
A: The IC50 was 2 ± 0.73 µM.

Q: Which results are given for `Cc1ccccc1NC(=O)CN1CCN(c2ncccc2[N+](=O)[O-])CC1` [5k, 2-(4-(3-Nitropyridin-2-yl)piperazin-1-yl)-N-(ortho-tolyl)acetamide]?
A: IC50 (jack bean urease): 14.1 ± 0.67 µM; melting point: 105 to 106 °C
